Laboratory results as given in US6518318B1, “Stimulating transport of glucose into animal tissue by the administration of pinitol” (priority 1999, dated 2003).

Key:
L6 Myoblasts = assay: Glucose uptake (glucose transport) in cell culture; format: cell-based; settings: for GLUCOSE TRANSPORT: Table 3, control 151
Description: Glucose transport was tested and measured in accordance with the protocol set forth in Amira Kip et al., Induction of Sugar Uptake Response to Insulin by Serum Depletion in Fusing L6 Myoblasts, American Journal of Physiology, Vol. 247, No. 3, Part 1 (September 1984), herein incorporated by reference, except that the cell culture was preincubated for only 2 hours and the cells treated with varying concentrations of pinitol, insulin or a combination thereof as set forth in Tables One through Three. The raw data, in terms of “counts per minute” as measured with a scintillation counter, is provided in Tables One and Two, while calculated data, in terms of “pmol min^−1 mg protein^−1,” is provided in Table Three.

cells = assay: Glycogen formation (14-C glucose incorporation into ethanol-precipitable glycogen); format: cell-based
Description: The method for glycogen incorporation is similar to that of J. Berger and N. S. Hayes, Anal Biochem. 261: 159-163 (1998), one of several standard references for radiolabeled (14-C) glucose incorporation into ethanol-precipitable glycogen. Into each well was added 1.25 mil of 1% TritonX100. The wells were then placed on a rotating agitator for 30 minutes to dissolve the cells. A 1 ml sample was removed from each well and placed in a 10 ml plastic tube. Into each sample was added 1 ml of a solution containing 18% trichloroacetic acid and 2 mg/ml of glycogen (added as carrier). The treated samples were placed on ice for 20 minutes and then centrifuged for 10 minutes at 10,000 RPM with the supernatant transferred to new plastic tubes. The remaining solids were washed by adding 0.3 ml of the trichloracetic acid-glycogen solution to the pellet, and centrifuged again as before. The combined supernatants were added to 4 ml of ice cold ethanol and 0.25 ml of 2% sodium sulphate (to help precipitate glycogen, as in L. Y. Hung and L. A. Menahan, Biochemical Medicine, Vol. 24: 356-360 (1980)). This was left overnight at 4° C. The precipitate was collected the next day by centrilugation at 10,000 RPM for 10 min. The precipitate was redisolved in water (2 ml) and reprecipitated as before with ethanol and sodium sulphate. The precipitate was dissolved in water, added to scintillation fluid, and radioactivity determined.

[1] = Experiment Two, administered alone, at higher concentrations

Q: For “Insulin: insulin, used to treat the cells alone or with pinitol as comparison”, which “stimulation of glucose transport (conclusion)” value (L6 Myoblasts; [1]) is on record?
A: The value was “significant stimulation in glucose transport”.

Q: And the “COUNTS PER MINUTE (glucose uptake)” value (L6 Myoblasts; Table 2, Insulin 10^−3 mM, control 3178)?
A: The value was 4477 counts per minute.

Q: What about the “GLUCOSE TRANSPORT” value (L6 Myoblasts; Insulin 10^−5 mM) of the same compound?
A: Its value is 200 pmol · min^−1 · mg protein^−1.

Q: What about the “GLYCOGEN FORMATION 1st Set” value (cells; Table 4, Insulin 10^−6 mM) of the same compound?
A: The value was 136.27 nmol/min/mg.

Q: What about the “GLYCOGEN FORMATION 2nd Set” value (cells; Table 4, Insulin 10^−6 mM) of the same compound?
A: The value was 96.14 nmol/min/mg.

Q: And the “GLYCOGEN FORMATION 3rd Set” value (cells; Table 4, Insulin 10^−6 mM)?
A: Its value is 212.09 nmol/min/mg.

Q: What about the “GLYCOGEN FORMATION Average” value (cells; Table 4, Insulin 10^−6 mM, control 52.44 ± 4.58) of the same compound?
A: The value was 148.17 ± 58.89 nmol/min/mg.

Q: And the “GLYCOGEN FORMATION 1st Set” value (cells; Table 4, Insulin 10^−8 mM)?
A: The value was 68.45 nmol/min/mg.

Q: What about the “GLYCOGEN FORMATION 2nd Set” value (cells; Table 4, Insulin 10^−8 mM) of the same compound?
A: Its value is 75.36 nmol/min/mg.

Q: And the “GLYCOGEN FORMATION Average” value (cells; Table 4, Insulin 10^−8 mM, control 52.44 ± 4.58)?
A: The value was 71.90 ± 4.89 nmol/min/mg.

Q: What about the “GLYCOGEN FORMATION 1st Set” value (cells; Table Five, Insulin 10^−7 M) of the same compound?
A: The value was 186.52 nmol/min/mg.

Q: What about the “GLYCOGEN FORMATION 2nd Set” value (cells; Table Five, Insulin 10^−7 M) of the same compound?
A: Its value is 179.88 nmol/min/mg.

Q: And the “GLYCOGEN FORMATION 3rd Set” value (cells; Table Five, Insulin 10^−7 M)?
A: Its value is 79.32 nmol/min/mg.

Q: And the “GLYCOGEN FORMATION 4th Set” value (cells; Table Five, Insulin 10^−7 M)?
A: Its value is 167.44 nmol/min/mg.

Q: And the “GLYCOGEN FORMATION 5th Set” value (cells; Table Five, Insulin 10^−7 M)?
A: Its value is 136.35 nmol/min/mg.

Q: And the “GLYCOGEN FORMATION Average” value (cells; Table Five, Insulin 10^−7 M, control 130.18 ± 20.87)?
A: Its value is 149.90 ± 43.91 nmol/min/mg.

Q: Which results are given for `CO[C@H]1[C@H](O)[C@@H](O)[C@@H](O)[C@H](O)[C@@H]1O` [Pinitol]?
A: stimulation of glucose transport (conclusion) (L6 Myoblasts; [1]): significant stimulation in glucose transport; COUNTS PER MINUTE (glucose uptake) (L6 Myoblasts; Table 1, Pinitol 0.14 mM, raw data, control 5185): 5221 counts per minute; COUNTS PER MINUTE (glucose uptake) (L6 Myoblasts; Table 1, Pinitol 1.44 mM, raw data, control 5185): 6009 counts per minute; COUNTS PER MINUTE (glucose uptake) (L6 Myoblasts; Table 2, Pinitol 1.0 mM, control 3178): 6007 counts per minute; GLUCOSE TRANSPORT (L6 Myoblasts; Pinitol 0.14 mM, calculated data): 155 pmol · min^−1 · mg protein^−1; stimulation of glucose transport (conclusion) (L6 Myoblasts; alone, higher concentrations (e.g., 1.44 mM)): significant stimulation in glucose transport; stimulation of glucose transport (conclusion) (L6 Myoblasts; alone, low concentrations (e.g., 0.14 mM)): does not meaningfully stimulate glucose transport; GLYCOGEN FORMATION 1st Set (cells; Table 4, Pinitol 1.4 mM): 68.36 nmol/min/mg; GLYCOGEN FORMATION 2nd Set (cells; Table 4, Pinitol 1.4 mM): 79.08 nmol/min/mg; GLYCOGEN FORMATION 3rd Set (cells; Table 4, Pinitol 1.4 mM): 64.37 nmol/min/mg; GLYCOGEN FORMATION Average (cells; Table 4, Pinitol 1.4 mM, control 52.44 ± 4.58): 70.60 ± 7.61 nmol/min/mg; GLYCOGEN FORMATION 1st Set (cells; Table 4, Pinitol 144.0 mM): 57.75 nmol/min/mg; GLYCOGEN FORMATION 2nd Set (cells; Table 4, Pinitol 144.0 mM): 83.14 nmol/min/mg; GLYCOGEN FORMATION 3rd Set (cells; Table 4, Pinitol 144.0 mM): 64.24 nmol/min/mg; GLYCOGEN FORMATION Average (cells; Table 4, Pinitol 144.0 mM, control 52.44 ± 4.58): 68.38 ± 13.19 nmol/min/mg; GLYCOGEN FORMATION 1st Set (cells; Table Five, Pinitol 1.4 mM): 102.40 nmol/min/mg; GLYCOGEN FORMATION 2nd Set (cells; Table Five, Pinitol 1.4 mM): 117.18 nmol/min/mg; GLYCOGEN FORMATION 3rd Set (cells; Table Five, Pinitol 1.4 mM): 183.05 nmol/min/mg; GLYCOGEN FORMATION 4th Set (cells; Table Five, Pinitol 1.4 mM): 113.15 nmol/min/mg; GLYCOGEN FORMATION 5th Set (cells; Table Five, Pinitol 1.4 mM): 124.64 nmol/min/mg; GLYCOGEN FORMATION 6th Set (cells; Table Five, Pinitol 1.4 mM): 158.40 nmol/min/mg; GLYCOGEN FORMATION Average (cells; Table Five, Pinitol 1.4 mM, control 130.18 ± 20.87): 133.14 ± 30.99 nmol/min/mg; GLYCOGEN FORMATION 1st Set (cells; Table Five, Pinitol 144 mM): 123.03 nmol/min/mg; GLYCOGEN FORMATION 2nd Set (cells; Table Five, Pinitol 144 mM): 211.04 nmol/min/mg; GLYCOGEN FORMATION 3rd Set (cells; Table Five, Pinitol 144 mM): 146.53 nmol/min/mg; GLYCOGEN FORMATION 4th Set (cells; Table Five, Pinitol 144 mM): 192.74 nmol/min/mg; GLYCOGEN FORMATION 5th Set (cells; Table Five, Pinitol 144 mM): 97.05 nmol/min/mg; GLYCOGEN FORMATION 6th Set (cells; Table Five, Pinitol 144 mM): 199.85 nmol/min/mg; GLYCOGEN FORMATION Average (cells; Table Five, Pinitol 144 mM, control 130.18 ± 20.87): 161.71 ± 46.39 nmol/min/mg; stimulation of glycogen formation (conclusion) (cells; administered alone): significant stimulation in glycogen formation
